The source made the active and inactive calls. No cut-off for these calls is given here.
Columns and labels:
[1] = target: Proto-oncogene tyrosine-protein kinase Src (Homo sapiens) (UniProt P12931); test: Inhibition of interaction between human Src-SH3 domain and PRP2 at 800 uM by fluorescence polarization technique
[2] = target: Proto-oncogene tyrosine-protein kinase Src (Homo sapiens) (UniProt P12931); test: Inhibition of interaction between human Src-SH3 domain and PRP2 at 100 uM by fluorescence polarization technique

Chain of Proto-oncogene tyrosine-protein kinase Src (Homo sapiens) (P12931 2-536 limits assumed): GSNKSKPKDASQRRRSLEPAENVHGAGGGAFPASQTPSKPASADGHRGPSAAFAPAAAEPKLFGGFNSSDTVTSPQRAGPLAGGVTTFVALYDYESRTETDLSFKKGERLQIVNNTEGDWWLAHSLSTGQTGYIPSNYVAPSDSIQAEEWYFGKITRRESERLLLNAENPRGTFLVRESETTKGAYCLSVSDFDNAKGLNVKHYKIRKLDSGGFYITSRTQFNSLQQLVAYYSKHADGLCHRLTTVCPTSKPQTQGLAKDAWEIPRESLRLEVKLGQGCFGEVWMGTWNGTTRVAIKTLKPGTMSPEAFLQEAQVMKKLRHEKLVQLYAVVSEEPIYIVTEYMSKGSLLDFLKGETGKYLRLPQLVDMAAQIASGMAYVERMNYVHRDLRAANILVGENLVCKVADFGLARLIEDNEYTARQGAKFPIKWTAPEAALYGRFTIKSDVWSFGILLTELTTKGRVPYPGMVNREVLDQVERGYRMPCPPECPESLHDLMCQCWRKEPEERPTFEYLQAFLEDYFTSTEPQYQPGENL

Row | Activity [1] | inhibition [2] [%] | SMILES
1 | Active | 22 | COc1ccc(NCCNc2cc(C)nc3c2ccc2ccccc23)cc1OC
2 | Active | – | Cc1cc(NCCNc2ccc3c(c2)OCCO3)c2ccc3ccccc3c2n1

Source: ChEMBL document CHEMBL1142315, “In silico screening and biological evaluation of inhibitors of Src-SH3 domain interaction with a proline-rich ligand” (Bioorg Med Chem Lett, 2008)
